From patent US6376670B1, “Quinoline-indole antimicrobial agents, uses and compositions related thereto” (Sepracor Inc., priority 1997, dated 2002)
Read-outs that look alike come from different tables or passages of the source.

Assays:
[1] = tested on: methicillin-resistant Staphylococcus aureus (MRSA); assay: Determination of MIC values (BHI broth, 96 well microtiter plate); assay type: cell-based; details: Staphylococcus aureus, MRSA, read-out: MIC MRSA
Protocol: (§1) Stock solutions of compounds are prepared with a concentration of 10 mg/mL. These solutions are then diluted 1:4 to give a concentration of 2.5 mg/mL. The compounds are then serially diluted 1:2 for 6 iterations. The concentrations made for each compound are 2.5, 1.25, 0.625, 0.3125, 0.156, 0.078, and 0.039 mg/mL. A control sample (no compound) is run along with each compound tested. All dilutions are made in DMSO.
(§2) All wells of a 96 well microtiter plate are filled with 100 μL of BHI (Brain-Heart Infusion) broth. Columns on the plate are labeled 1-12, and rows are labeled A-H. Each column of wells is used to test one series of diluted compounds. Into each well of 100 μL of BHI broth, 1 μL of diluted compound is placed for a 1:100 dilution. This makes the final concentration of each drug series 25, 12.5, 6.25, 3.125, 1.56, 0.78, 0.39, and 0 μg/mL.
(§3) Test Organism: A sterile 15 mL screw cap tube is filled wth 3 mL of BHI broth. Next, 2-3 colonies of test organism are inoculated into the tube. The tube is then incubated at 37° C. in a CO2 (approx. 7%) atmosphere jar. The organisms are allowed to grow to the density of a 0.5 McFarland standard (10^8 cells/mL). The organism is then inoculated into each well of the microtiter plate containing the diluted compounds to be tested for MIC. The inoculum is 1 μL in volume and represents 10^5 to 10^6 cells/mL.
(§4) After inoculation the plates are covered and incubated at 37° C. and approx. 7-10% CO2 atmosphere overnight (about 16 hours). The plates are then observed for growth, the well with the lowest concentration of drug and no observable growth represents the well determining the MIC.

[2] = tested on: vancomycin-resistant Enterococcus spp. (VRE); assay: as above; assay type: cell-based; details: Enterococcus, VRE, read-out: MIC VREF
Protocol: as §1, §2, §3, §4

[3] = 16 h, BHI broth, 37° C., overnight (about 16 hours)
[4] = VREF, BHI broth, overnight 37° C.

Cn1cc(-c2ccc3ccccc3n2)c2ccccc21 [Example 176]
MIC [1, 3]: > 25 µg/mL
MIC [2, 3]: > 25 µg/mL

NCC1CCCC(CNC(=O)c2cc(-c3c[nH]c4ccc(Br)cc34)nc3ccccc23)C1 (stereo not shown) [compound 5]
MIC [1, 3]: < 7 µg/mL
MIC [2, 3]: < 7 µg/mL

Cn1c(-c2ccccc2)c(-c2ccc3cc(Cl)ccc3n2)c2ccccc21 [Example 220]
MIC ([1]; BHI broth, overnight 37° C.): < 25 µg/mL
MIC [2, 4]: > 25 µg/mL

O=C1c2ccccc2C(=O)N1CCCCn1cc(-c2ccc3cc(Cl)ccc3n2)c2ccc(F)cc21 [Example 267]
MIC ([1]; BHI broth, overnight 37° C.): > 25 µg/mL
MIC [2, 4]: > 25 µg/mL

O=C(O)c1cc(-c2c[nH]c3cc(F)ccc23)nc2ccccc12 [Example 78]
MIC [1, 3]: > 25 µg/mL
MIC [2, 3]: > 25 µg/mL

NCc1ccc(CNC(=O)c2cc(-c3ccoc3)nc3ccccc23)cc1 [Example 82]
MIC [1, 3]: > 25 µg/mL
MIC [2, 3]: > 25 µg/mL

NCc1ccc(CNC(=O)C2CC(c3c[nH]c4ccccc34)Nc3ccccc32)cc1 (stereo not shown) [Example 91]
MIC [1, 3]: > 25 µg/mL
MIC [2, 3]: > 25 µg/mL

CC(C)(C)OC(=O)n1cc(-c2cc(C(=O)O)c3cccnc3n2)c2cc(Br)ccc21 [Example 157]
MIC [1, 3]: > 25 µg/mL
MIC [2, 3]: > 25 µg/mL

NCCCCNC(=O)c1cc(-c2c[nH]c3ccc(Br)cc23)nc2ccccc12 [compound 58]
MIC [1, 3]: < 25 µg/mL
MIC [2, 3]: < 25 µg/mL

Cc1cc2nc(-c3c[nH]c4ccc(Br)cc34)cc(C(=O)N3CCCNCC3)c2cc1C [Example 130]
MIC [1, 3]: < 7 µg/mL
MIC [2, 3]: < 7 µg/mL

O=C(Nc1ccc(OC(F)(F)F)cc1)N1CCN(C(=O)c2cc(-c3c[nH]c4ccc(Br)cc34)nc3ccccc23)CC1 [Example 68]
MIC [1, 3]: < 7 µg/mL
MIC [2, 3]: < 7 µg/mL

Clc1ccc2nc(-c3c(-c4ccccc4)[nH]c4ccccc34)ccc2c1 [Example 203]
MIC ([1]; BHI broth, overnight 37° C.): > 25 µg/mL
MIC [2, 4]: > 25 µg/mL

NCc1ccc(CNC(=O)c2cc(-c3ccc4ccccc4c3)nc3ccccc23)cc1 [Example 87]
MIC [1, 3]: < 25 µg/mL
MIC [2, 3]: < 25 µg/mL

COc1cc2nc(-c3c[nH]c4ccc(Br)cc34)cc(C(=O)NCc3ccc(CN)cc3)c2cc1OC [Example 98]
MIC [1, 3]: < 25 µg/mL
MIC [2, 3]: < 25 µg/mL

O=C(c1cc(-c2c[nH]c3ccc(Br)cc23)nc2ccccc12)N1CCCNCC1 [Example 14]
MIC [1, 3]: < 25 µg/mL
MIC [2, 3]: < 25 µg/mL

CN1CCN(C(=O)c2cc(-c3c[nH]c4ccc(Br)cc34)nc3ccccc23)CC1 [Example 30]
MIC [1, 3]: < 25 µg/mL
MIC [2, 3]: > 25 µg/mL

Cc1[nH]c2ccccc2c1-c1ccc2ccccc2n1 [Example 187]
MIC [1, 3]: > 25 µg/mL
MIC [2, 3]: > 25 µg/mL

NCc1ccc(CNC(=O)c2cc(-c3c[nH]c4ccc(OCc5ccccc5)cc34)nc3ccccc23)cc1 [Example 19]
MIC [1, 3]: < 25 µg/mL
MIC [2, 3]: < 25 µg/mL

O=C(c1cc(-c2c[nH]c3ccc(Br)cc23)nc2ccc(Br)cc12)N1CCCNCC1 [Example 126]
MIC [1, 3]: < 7 µg/mL
MIC [2, 3]: < 7 µg/mL

Cc1cc(Cl)cc2c(C(=O)NCc3ccc(CN)cc3)cc(-c3c[nH]c4ccc(Br)cc34)nc12 [Example 56]
MIC [1, 3]: < 25 µg/mL
MIC [2, 3]: < 25 µg/mL

O=C(NCc1ccc(CNC(=O)c2cc(-c3c[nH]c4ccc(Br)cc34)nc3ccccc23)cc1)Nc1cc(C(F)(F)F)cc(C(F)(F)F)c1 [Example 90]
MIC [1, 3]: < 25 µg/mL
MIC [2, 3]: < 7 µg/mL

NCC1CCC(CNC(=O)c2cc(-c3c[nH]c4ccc(Br)cc34)nc3ccccc23)CC1 (stereo not shown) [Example 42]
MIC [1, 3]: > 25 µg/mL
MIC [2, 3]: < 25 µg/mL

NCCNC(=O)c1cc(-c2c[nH]c3ccc(Br)cc23)nc2cc(Cl)c(C#CCN3CCCCC3)cc12 [Example 488]
MIC ([1]; 16 h, BHI broth, 37° C., about 16 hours): < 7 µg/mL

NCc1ccc(CNC(=O)c2cc(-c3ccsc3)nc3ccc(Br)cc23)cc1 [Example 83]
MIC [1, 3]: > 25 µg/mL
MIC [2, 3]: > 25 µg/mL

NCc1ccc(CNC(=O)c2cc(-c3ccccn3)nc3ccccc23)cc1 [Example 93]
MIC [1, 3]: > 25 µg/mL
MIC [2, 3]: > 25 µg/mL

Cn1cc(-c2ccc3ccccc3n2)c2cc(Cl)ccc21 [Example 177]
MIC [1, 3]: > 25 µg/mL
MIC [2, 3]: > 25 µg/mL

NCCCCCCNC(=O)c1cc(-c2c[nH]c3ccc(Br)cc23)nc2ccccc12 [Example 59]
MIC [1, 3]: < 7 µg/mL
MIC [2, 3]: < 7 µg/mL

Cn1ccc(-c2cc(C(=O)NCc3ccc(CN)cc3)c3ccccc3n2)c1 [Example 86]
MIC [1, 3]: > 25 µg/mL
MIC [2, 3]: > 25 µg/mL

Cc1ccc2[nH]cc(-c3ccc4ccccc4n3)c2c1 [Example 188]
MIC [1, 3]: > 25 µg/mL
MIC [2, 3]: > 25 µg/mL

NCC1CCCC(CNC(=O)c2cc(-c3c[nH]c4ccc(Br)cc34)nc3cc(F)ccc23)C1 (stereo not shown) [Example 255]
MIC ([1]; BHI broth, overnight 37° C.): < 7 µg/mL
MIC [2, 4]: < 7 µg/mL

NCc1ccc(CNC(=O)c2cc(C34CC5CC(CC(C5)C3)C4)nc3ccccc23)cc1 [Example 26]
MIC [1, 3]: < 25 µg/mL
MIC [2, 3]: < 25 µg/mL

NCCN(CCNC(=O)c1cccc2nc(-c3c[nH]c4ccc(Br)cc34)ccc12)CCNC(=O)c1cc(-c2c[nH]c3ccc(Br)cc23)nc2ccccc12 [Example 51]
MIC [1, 3]: < 7 µg/mL
MIC [2, 3]: < 7 µg/mL

NC(=O)C(Cc1ccc2ccccc2c1)NC(=O)c1cc(-c2c[nH]c3ccccc23)nc2ccccc12 (stereo not shown) [Example 145]
MIC [1, 3]: < 7 µg/mL
MIC [2, 3]: < 25 µg/mL

NCc1ccc(CNC(=O)c2cc(-c3ccccc3)nc3ccccc23)cc1 [Example 81]
MIC [1, 3]: > 25 µg/mL
MIC [2, 3]: > 25 µg/mL

CNCCC(C)N(C)C(=O)c1cc(-c2c[nH]c3ccc(Br)cc23)nc2ccccc12 (stereo not shown) [Example 33]
MIC [1, 3]: < 7 µg/mL
MIC [2, 3]: < 7 µg/mL

NCc1cccc(CNC(=O)c2cc(-c3ccsc3)nc3ccc(Br)cc23)c1 [Example 166]
MIC [1, 3]: > 25 µg/mL
MIC [2, 3]: > 25 µg/mL

NC(=O)C(Cc1ccc([N+](=O)[O-])cc1)NC(=O)c1cc(-c2c[nH]c3ccc(Cl)cc23)nc2ccccc12 (stereo not shown) [Example 148]
MIC [1, 3]: < 7 µg/mL
MIC [2, 3]: < 25 µg/mL

Cn1cc(-c2ccc3cc(Cl)ccc3n2)c2cc(Br)ccc21 [Example 167]
MIC [1, 3]: > 25 µg/mL
MIC [2, 3]: > 25 µg/mL

Fc1cccc2[nH]cc(-c3ccc4ccccc4n3)c12 [Example 182]
MIC [1, 3]: > 25 µg/mL
MIC [2, 3]: > 25 µg/mL

NCc1cccc(CNC(=O)c2cc(-c3c[nH]c4ccc(Br)cc34)nc3ccccc23)c1 [compound 4]
MIC [1, 3]: < 25 µg/mL
MIC [2, 3]: < 7 µg/mL

CNC1CCN(C(=O)c2cc(-c3c[nH]c4ccc(Br)cc34)nc3ccccc23)C1 (stereo not shown) [Example 60]
MIC [1, 3]: < 25 µg/mL
MIC [2, 3]: < 25 µg/mL

Cc1ccc2nc(-c3ccncc3)cc(C(=O)NCc3ccc(CN)cc3)c2c1 [Example 95]
MIC [1, 3]: > 25 µg/mL
MIC [2, 3]: > 25 µg/mL

NCc1ccc(CNC(=O)c2cc(-c3c[nH]c4cccc(Cl)c34)nc3ccccc23)cc1 [Example 21]
MIC [1, 3]: > 25 µg/mL
MIC [2, 3]: > 25 µg/mL

Cc1ccc2[nH]cc(-c3cc(C(=O)NC(Cc4ccc5ccccc5c4)C(N)=O)c4ccccc4n3)c2c1 (stereo not shown) [Example 146]
MIC [1, 3]: < 7 µg/mL
MIC [2, 3]: < 25 µg/mL

NCc1ccc(CNC(=O)c2cc(-c3c[nH]c4ccc(Cl)cc34)nc3ccccc23)cc1 [Example 16]
MIC [1, 3]: < 7 µg/mL
MIC [2, 3]: < 25 µg/mL

Cn1cc(-c2ccc3cc(Cl)ccc3n2)c2ccccc21 [Example 179]
MIC [1, 3]: > 25 µg/mL
MIC [2, 3]: > 25 µg/mL

NC1CCCCC1NC(=O)c1cc(-c2c[nH]c3ccc(Br)cc23)nc2ccccc12 (stereo not shown) [compound 10]
MIC [1, 3]: < 25 µg/mL
MIC [2, 3]: < 25 µg/mL

Cn1cc(-c2ccc3ccccc3n2)c2cc(Br)ccc21 [Example 178]
MIC [1, 3]: > 25 µg/mL
MIC [2, 3]: > 25 µg/mL

O=C(NC1CN2CCC1CC2)c1cc(-c2c[nH]c3ccc(Br)cc23)nc2ccccc12 (stereo not shown) [Example 35]
MIC ([1]; 16 h): < 25 µg/mL
MIC ([2]; 16 h): > 25 µg/mL

Brc1ccc2[nH]cc(-c3cc(CN4CCNCC4)c4ccccc4n3)c2c1 [Example 28]
MIC [1, 3]: < 25 µg/mL
MIC [2, 3]: < 25 µg/mL

NCCCN1CCN(CCCNC(=O)c2cc(-c3c[nH]c4ccc(Br)cc34)nc3ccc(I)cc23)CC1 [Example 70]
MIC [1, 3]: < 7 µg/mL
MIC [2, 3]: < 25 µg/mL

Cn1cc(-c2ccc3cc(Cl)ccc3n2)c2cc(F)ccc21 [Example 210]
MIC ([1]; BHI broth, overnight 37° C.): < 7 µg/mL
MIC [2, 4]: > 25 µg/mL

O=C(c1cc(-c2c[nH]c3ccc(Br)cc23)nc2ccccc12)N1CCC(O)(c2ccccc2)CC1 [Example 36]
MIC [1, 3]: < 25 µg/mL
MIC [2, 3]: < 25 µg/mL

O=C(O)c1cc(-c2c[nH]c3cccc(F)c23)nc2ccccc12 [Example 77]
MIC [1, 3]: > 25 µg/mL
MIC [2, 3]: > 25 µg/mL

COC(=O)c1ccc2nc(-c3c[nH]c4ccc(Br)cc34)cc(C(=O)NCc3ccc(CN)cc3)c2c1 [Example 105]
MIC [1, 3]: > 25 µg/mL
MIC [2, 3]: < 25 µg/mL

O=C(Nc1ccc(O)cc1)c1cc(-c2c[nH]c3ccc(Br)cc23)nc2ccccc12 [Example 37]
MIC [1, 3]: < 7 µg/mL
MIC [2, 3]: > 25 µg/mL

O=C(NCc1nc2ccccc2[nH]1)c1cc(-c2c[nH]c3ccc(Br)cc23)nc2ccccc12 [Example 38]
MIC [1, 3]: < 7 µg/mL
MIC [2, 3]: > 25 µg/mL

NCCC(=O)NCc1ccc(CNC(=O)c2cc(-c3c[nH]c4ccc(Br)cc34)nc3ccccc23)cc1 [Example 72]
MIC [1, 3]: > 25 µg/mL
MIC [2, 3]: > 25 µg/mL
